# Reference: patent publication US11926642B2, “Compounds and methods for the treatment of COVID-19” (priority 2020, dated 2024)
# Where “and” joins values, the source holds several entries; their conditions need not be identical. Equal entries are not always repeated. Where two headings read alike, the source gives them in different places.
# How the values were obtained:
# [1] = human
# [2] = in vitro; settings: human
# [3] = not given; remark: listed apart in the source
# [4] = target: hERG (Homo sapiens, UniProt Q12809)
# [5] = physchem
# [6] = tested on: HCoV-229E; assay: microbe, parasite or virus in culture; type: cell-based
# Chain of hERG (Q12809 whole entry): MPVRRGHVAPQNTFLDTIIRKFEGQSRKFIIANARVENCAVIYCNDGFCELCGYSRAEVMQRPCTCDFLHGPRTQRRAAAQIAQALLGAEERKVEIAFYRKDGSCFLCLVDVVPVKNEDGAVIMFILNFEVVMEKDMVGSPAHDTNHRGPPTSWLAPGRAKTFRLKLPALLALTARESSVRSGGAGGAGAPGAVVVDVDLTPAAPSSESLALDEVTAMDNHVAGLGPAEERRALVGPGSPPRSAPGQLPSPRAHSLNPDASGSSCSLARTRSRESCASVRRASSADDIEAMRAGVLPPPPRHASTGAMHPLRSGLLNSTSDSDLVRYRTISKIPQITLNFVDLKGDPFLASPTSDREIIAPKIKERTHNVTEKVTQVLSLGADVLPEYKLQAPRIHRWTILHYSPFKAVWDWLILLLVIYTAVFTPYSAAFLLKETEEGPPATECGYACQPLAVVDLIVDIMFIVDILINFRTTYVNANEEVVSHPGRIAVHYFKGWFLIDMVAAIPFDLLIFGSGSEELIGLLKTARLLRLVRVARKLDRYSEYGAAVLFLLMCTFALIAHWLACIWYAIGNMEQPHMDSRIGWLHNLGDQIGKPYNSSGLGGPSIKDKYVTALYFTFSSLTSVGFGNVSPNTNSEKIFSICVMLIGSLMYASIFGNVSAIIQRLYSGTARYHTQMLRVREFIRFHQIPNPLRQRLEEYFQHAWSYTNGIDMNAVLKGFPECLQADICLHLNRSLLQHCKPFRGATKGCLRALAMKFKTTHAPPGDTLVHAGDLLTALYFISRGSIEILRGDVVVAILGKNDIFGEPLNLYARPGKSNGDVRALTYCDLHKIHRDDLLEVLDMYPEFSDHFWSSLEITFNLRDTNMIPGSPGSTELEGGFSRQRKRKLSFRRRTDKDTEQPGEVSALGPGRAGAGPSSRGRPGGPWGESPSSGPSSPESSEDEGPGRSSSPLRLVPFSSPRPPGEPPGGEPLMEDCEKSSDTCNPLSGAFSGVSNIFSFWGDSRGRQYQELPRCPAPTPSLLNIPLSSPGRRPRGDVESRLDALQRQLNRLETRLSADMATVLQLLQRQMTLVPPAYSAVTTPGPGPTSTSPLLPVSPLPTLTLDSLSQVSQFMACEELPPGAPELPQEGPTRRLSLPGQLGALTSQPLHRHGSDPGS
compound,measurement,setting,value
COc1cccc2[nH]c(C(=O)N[C@@H](CC(C)C)C(=O)N[C@@H](C[C@@H]3CCNC3=O)C(=O)COP(=O)(O)O)cc12 [Example 49],projected unbound human Cmax,[1],170 nM
same,Increase in Total Impurities (%) - 4 days,pH 3,0.8% and 1.2%
same,Increase in Total Impurities (%) - 4 days,pH 4,1.4% and 1.5% and 1.6%
same,Increase in Total Impurities (%) - 4 days,pH 5,4.3% and 4.1% and 3.6%
same,CC50,[2],> 100000 nM
same,Total Impurities (%),[3]; pH 1.9,3.2% and 5.4% and 8.9%
same,Total Impurities (%),[3]; pH 2.9,2.0% and 2.5% and 3.0%
same,Total Impurities (%),[3]; pH 4.2,3.0% and 3.8% and 6.5%
same,hERG current amplitude: no inhibition at up to,[4],300 µM
same,solubility,[5],> 200 mg/mL
same,EC50,"[6]; Human coronavirus 229E, MRC5, read-out: EC50 μM GeoMean (95% CI)",0.074 µM
same,EC50,[6]; read-out: EC50 μM GeoMean (95% CI),0.058 µM
